Experimental findings from patent US20240384350A1, “METHODS OF TREATING CANCER WITH KINASE INHIBITORS” (BOARD OF REGENTS, THE UNIVERSITY OF TEXAS SYSTEM, priority 2021, published 2024) are described below.

In the test the test system is EGFR mutations spanning exons 18-21. Kind of test: Ba/F3 panel of 76 cell lines expressing EGFR mutations, selectivity over WT EGFR by structure-function group. The following applies: Ex20ins mutations, FIG. 5A. Type of test: cell-based. From the text: To determine the effect of EGFR mutations on TKI sensitivity, a panel of 76 cell lines expressing EGFR mutations spanning exons 18-21 was generated and screened against 18 known EGFR inhibitors representing 1st (non-covalent), 2nd (covalent), and 3rd (covalent, T790M targeting) generation TKIs, and compounds under investigation for Ex20ins. […] For the various mutations, structure-function based groups were more predictive of drug sensitivity than exon based groups as determined by spearmen correlations (p<0.0001, FIG. 1F, FIG. 2). […]
After 48-72 hours of transduction, 2 μg/ml puromycin (Invitrogen) was added to Ba/F3 cell lines in complete RPMI. […] Plates were incubated for a minimum of 10 minutes, and bioluminescence was determined using a FLUOstar OPTIMA plate reader (BMG LABTECH). […] Statistical differences between groups were determined by ANOVA as described in the figure legends. […]

For the compound `CN(C)C/C=C/C(=O)Nc1cc2c(Nc3ccc(Cl)c(Br)c3)ncnc2cn1` [Tarlox-TKI], the sensitivity in vitro result is recorded as “sensitive”.
